Assay: Human HepG2 cell viability assay in 384 well format
Assay type: toxicity, cell-based
Set-up: dose 125 nL, time 70.5 hour; concentration not given beside the values
Details: HepG2 cells, read-out: Inhibition

In order of falling cytotoxicity at 70.5 h:
1. O=C(CC1CN(Cc2ccccc2)CCO1)NCCN1CCOCC1 (stereo not drawn)  37.5%
2. Cc1cccnc1CCNCC1(O)CCCN(CC2CCCCC2)C1=O (stereo not drawn)  35.9%
3. CN(CCc1cccc2ccccc12)Cc1nc(N)nc(N(C)C)n1  28.3%
4. CC(=O)NCCNC(=O)CN1CCCC1c1c(C)nn(C)c1C (stereo not drawn)  25.7%
5. COc1cc2c(cc1OC)S(=O)(=O)N(Cc1ccccc1C)C2=O  23.7%
6. Cc1cnccc1CN1CC[C@@](C)(O)[C@H](Oc2ccccc2)C1  22.4%
7. O=C(c1cscn1)N1CCN2C[C@H](OCc3cccnc3)C[C@H]2C1  20%
8. Cc1noc(C2CCN(CC(=O)N3CCNC(=O)C3)CC2)n1  17.7%
9. O=C1CCCN1CCN1CCCCC1Cn1cncn1 (stereo not drawn)  17.7%
10. Cc1cc(C)n(CC2CN(Cc3cnc(C)s3)CCO2)n1 (stereo not drawn)  16.8%
11. CCN(C(=O)COC)C(c1cccnc1)c1cc(C)cc(C)c1 (stereo not drawn)  13.8%
12. CCN1CCN(c2ccc(F)cc2C(C)NCc2ccccn2)CC1 (stereo not drawn)  13.7%
13. NC(=O)CS(=O)(=O)Cc1csc(-c2ccc(F)cc2)n1  13.6%
14. CCC(CC)C(=O)Nc1ccc2oc(=O)n(CCN(C)C)c2c1  12.5%
15. CN(Cc1ccccc1)C(=O)[C@@H]1Cc2[nH]cnc2CN1C  9.41%
16. O=C(c1cccs1)N1CCC(Cn2nc(-c3ccco3)ccc2=O)CC1  8.96%
17. CC(=O)c1ccc(C(=O)N(C)Cc2nc(-c3ccccn3)no2)s1  8.57%
18. COc1cccc(CN2C[C@@H]3COC[C@]3(CN3CCOCC3)C2)c1  6.49%
19. COc1cc(CNc2nc(C3CC3)no2)cc(OC)c1OC  6.45%
20. CCn1cc2c(n1)CN(Cc1ccoc1)CC2COCC1CC1 (stereo not drawn)  6.36%
21. Cc1ccccc1OCCN1CCN(Cc2cnn(CCO)c2)CC1  4.76%
22. COCC(=O)N1CCCn2c(CN3CCOCC3)nnc2C1  2.56%
23. CC(C)c1noc(CN2CCN(CCO)CC2)n1  2.45%
24. COCCCN1CCC(NC2CSCCc3ccccc32)CC1 (stereo not drawn)  2.22%
25. CSc1ccc(CN2CCCC3(CNC(=O)c4ccccc4O3)C2)cc1 (stereo not drawn)  2.19%
26. O=C(NCCc1ccccn1)N1CCSC2(CCCCC2)C1  1.93%
27. O=C(NCCc1ccn(-c2ccccc2)n1)N1CCCC(O)C1 (stereo not drawn)  1.8%
28. CCc1nc(NS(=O)(=O)c2cc(C)ccc2Br)no1  1.48%
29. C[C@@H]1CN(C(=O)c2ccsc2)C[C@]12CCN(c1ccsc1)C2=O  1.23%
30. COC(=O)NC1(C(=O)Nc2ccc(-c3ncc[nH]3)cc2)CCCC1  1.15%
31. CN(C)C[C@H]1OC[C@@H]2CN(C(=O)NCc3cccnc3)CC[C@@H]21  0.184%
32. NC(=O)C1CN(C(=O)Cc2cccnc2)CCN(C2CCOCC2)C1 (stereo not drawn)  0.12%
33. O=C(NCc1ccc(F)cc1F)C(c1cccnc1)N1CCOCC1 (stereo not drawn)  -0.235%
34. CC(C)OCCC(=O)NS(=O)(=O)N1CCOc2ccccc21  -0.303%
35. COc1cccc(S(=O)(=O)N2C[C@@H](N(C)C)[C@H](C(C)C)C2)c1  -0.713%
36. COc1cccc(N2CCC(CNC(=O)NCc3ccco3)C2)c1 (stereo not drawn)  -0.834%
37. CC(C)CN1CCC2(CC1)C(=O)Nc1ccc(C(=O)NC(C)C)cc12  -0.986%
38. CNC(=O)NC(=O)C(C)N(C)CCCc1cc(-c2ccccc2)no1 (stereo not drawn)  -1.15%
39. Cn1cnnc1C1CCCN1C(=O)Nc1cccc(OC(F)F)c1 (stereo not drawn)  -1.48%
40. Cc1nc(C(C)C)sc1C(=O)NCCn1nc2ccccn2c1=O  -1.52%
41. O=C(CCN1C(=O)CCC1=O)Nc1ccc(Cl)cc1  -1.6%
42. CN1CCc2c(NC(=O)NCc3ccccc3Cl)cccc21  -1.74%
43. Cn1ccnc1CN1CCN2C[C@H](OCc3ccccc3)C[C@H]2C1  -1.75%
44. COC(C)c1noc(CN(C)c2ncccn2)n1 (stereo not drawn)  -1.92%
45. OCCN(Cc1cccnc1)c1ncc(Br)cn1  -2%
46. CSc1[nH]c(=O)c(C(=O)N2CCCC2c2cccs2)cc1C#N (stereo not drawn)  -2.03%
47. CN(CCC(=O)N1CCc2sccc2C1)Cc1ccc2c(c1)OCCO2  -2.14%
48. COc1ccc(-c2noc(Cn3cc4c(n3)CCC4)n2)c(OC)c1OC  -2.31%
49. Cc1noc(C)c1CNC(C)c1ccc(S(=O)(=O)N(C)C)cc1 (stereo not drawn)  -2.42%
50. O=C1N[C@@H]2CCN(C(=O)C3CCCC3)[C@@H]2C(=O)N1c1ccc(F)cc1  -2.52%
51. Cc1nnc(N2C[C@H](OCCCn3cccn3)[C@H]3OCCC[C@H]32)s1  -2.53%
52. Cc1cc(C(=O)N2CCCC(n3cccn3)C2)c(C)n1C1CC1 (stereo not drawn)  -2.54%
53. CCc1cc(=O)[nH]c(-c2ccc(NC(CO)CC(C)C)nc2)n1 (stereo not drawn)  -2.63%
54. CN1CCC/C1=N\S(=O)(=O)c1ccc(NC(=O)Cc2cccs2)cc1  -2.68%
55. CSCC(C)CNC(=O)N1CCSC(C)(C)C1 (stereo not drawn)  -2.74%
56. CNc1nc(CNC(=O)Nc2ccc([S+](C)[O-])c(F)c2)cs1 (stereo not drawn)  -2.75%
57. CC(C)(C)SCCNC(=O)[C@@]12CNC[C@@H]1CN(S(C)(=O)=O)C2  -2.8%
58. c1cncc(-c2nc(C3CC3)ncc2-c2ccnc(N3CCCC3)n2)c1  -2.86%
59. Cc1cc(C)n(-c2cncc(NCCNC(=O)C(C)C)n2)n1  -3.05%
60. Cc1nc(CN2CCN(S(=O)(=O)N3CCOCC3)CC2)oc1C  -3.19%
61. COc1ccc(C2CNCCN2C(=O)c2cccc3ncccc23)cc1 (stereo not drawn)  -3.21%
62. Cc1cc(CN2CCC(C3Nc4ccccc4S(=O)(=O)N3)CC2)oc1C (stereo not drawn)  -3.27%
63. CC(C)CN1C(=O)CC[C@H]2CN(Cc3ncc[nH]3)CC[C@H]21  -3.44%
64. Cc1cc(NC(=O)NCC(c2ccccc2)N2CCOCC2)n(C)n1 (stereo not drawn)  -3.59%
65. COc1c(CNC2CCc3cc(Cl)ccc32)c(C)nn1C (stereo not drawn)  -3.82%
66. COCCn1c2c(ccc1=O)CCN(Cc1ccoc1)CC2  -3.82%
67. CCc1nccn1C1CCCN(C(=O)Cc2cn3ccccc3n2)C1 (stereo not drawn)  -3.88%
68. Cn1c(C(=O)N2CC[C@@]3(O)CCCC[C@H]3C2)cc2ccccc21  -3.98%
69. Cc1nn(C)c(C)c1C1CCCN1C(=O)CCNc1ncccn1 (stereo not drawn)  -4.27%
70. Cn1cc(C(=O)N2CCC(c3cc(CCO)n(C)n3)C2)cn1 (stereo not drawn)  -4.36%
71. CCN(CCCNC(=O)Nc1ccccc1C(C)C)S(C)(=O)=O  -4.67%
72. CCOC(=O)C1(NC(=O)CCNc2cc(C)ccc2OC)CCCCC1  -4.71%
73. CC(C)c1ncc(CN2CCCC2c2[nH]ncc2C(=O)N(C)C)cn1 (stereo not drawn)  -5.06%
74. COc1cccc(CNC(C)c2ccc(-n3ccnc3)cc2)c1O (stereo not drawn)  -5.24%
75. Cn1c(C(=O)NC2CCCC2)nc2c1CCN(Cc1ccccc1)C2  -5.5%
76. c1ccc(CCN2CCCC2c2ccnc(Nc3ncccn3)n2)cc1 (stereo not drawn)  -5.57%
77. CN1CCN(Cc2ccccc2CNC(=O)c2cc(Cl)ccc2F)CC1  -5.92%
78. OC1CCN(Cc2c(-c3ccco3)[nH]c3ncccc23)CC1  -5.94%
79. c1cnc(NCc2n[nH]c3c2CCN(Cc2ccncc2)C3)nc1  -6.35%
80. Cn1nc2c(c1NC(=O)c1ccc(C3CCCN3C3CCC3)s1)CCC2 (stereo not drawn)  -6.85%
81. CCCc1ccc(S(=O)(=O)NCCNC(=O)c2ccoc2)cc1  -6.96%
82. Cc1cc(CN2C[C@@H]3COC[C@@H](C(=O)N4CCCCO4)[C@@H]3C2)oc1C  -6.96%
83. Cc1nc(C(C)C)sc1C(=O)NCCn1ccnc1  -7.02%
84. CC(=O)NCCC(=O)NCc1cc(Br)ccc1OC(F)F  -7.14%
85. CCC(CO)N(Cc1cccnc1)Cc1ccc(-c2ccn[nH]2)s1 (stereo not drawn)  -7.15%
86. CCCc1cc(C(=O)N(Cc2cccnc2)Cc2cccnc2)[nH]n1  -7.25%
87. COc1cccc(Nc2nc(C3CCCNC3)c3ccccn23)c1 (stereo not drawn)  -7.29%
88. Cc1cccc(N2CCC(N3CCCC4(CNC(=O)O4)C3)CC2)c1C (stereo not drawn)  -7.33%
89. CS(=O)(=O)N1CCCC12CCCN(C(=O)c1ccc3c(c1)OCO3)C2 (stereo not drawn)  -7.38%
90. CSCc1cc(F)ccc1CNC(=O)N1CCCC(CO)C1 (stereo not drawn)  -7.73%
91. COCC(C)NCc1ccc2[nH]c(C)c(C)c2c1 (stereo not drawn)  -7.86%
92. CCn1ccnc1CNCC(c1ccc(C)s1)N1CCOCC1 (stereo not drawn)  -7.92%
93. Cc1c2ncn(CC(=O)N(C)C)c(=O)c2nn1C  -8.37%
94. Cc1ccc(NC(=O)c2cc(S(=O)(=O)N3CCCCC3)c[nH]2)cc1F  -8.62%
95. CC(C)(C)OC(=O)NC1(c2noc(-c3ccco3)n2)CCC1  -9.18%
96. CC(C)CC(=O)N(C)Cc1nc(C(F)(F)F)cs1  -9.65%
97. O=C(c1ccncc1)N1CCC2(CC1)C(=O)Nc1ccccc12  -10.1%
98. CC1CCCCN1Cc1nc(Cc2ccccc2)no1 (stereo not drawn)  -10.4%
99. Cc1cc(C)c(CNC(=O)NC2CCN(C(=O)C(C)C)CC2)c(C)c1  -10.6%
100. Cc1ccc(S(=O)(=O)NC(=O)COc2cccc(C(N)=O)c2)s1  -10.7%
101. O=C(CCn1cncn1)NC1CCS(=O)(=O)C1 (stereo not drawn)  -11%
102. O=C(CC1NC(N2CCc3ccccc32)=NC1=O)Nc1ccc(Cl)cc1 (stereo not drawn)  -11.1%
103. CCOC1CCCN(C(=O)c2[nH]nc(C)c2Br)C1 (stereo not drawn)  -11.5%
104. Cc1ccc(-c2c(-c3ccccc3)ncn2CCCN2CCOCC2)o1  -11.8%
105. COc1coc(C(=O)Nc2ccncc2)cc1=O  -12.7%
106. CNC(=O)c1cnc2n1CCN(C(=O)Cc1ccccn1)C2  -13.8%
107. Cc1ncccc1NC(=O)[C@H]1C[C@@H]2CCN(Cc3ccsc3)C[C@H]2O1  -13.8%
108. Cc1ccc(-c2noc(C3CCN3C(=O)c3cc[nH]n3)n2)s1 (stereo not drawn)  -14.3%
109. Cc1ccc(C2CCCCCN2Cc2cn(C)nc2C)s1 (stereo not drawn)  -19.6%
110. CCOc1cc(-c2cc(=O)n3c(n2)CCCCC3)ccc1O  -20.5%
111. CC(C)NC(=O)N1CCN(C(=O)c2ccco2)CC2(CC(=O)N(C)C2)C1 (stereo not drawn)  -23.2%
112. Clc1cc(NCc2nccs2)nc2[nH]ccc12  -30.7%
113. CCCNC(=O)c1cccc(CNCc2csc(C(C)C)n2)c1  -78.5%
